Reference: US20250230147A1, “LACTAMS AS CBL-B INHIBITORS” (Genentech, Inc., priority 2021, published 2025)

Tests used:
Cbl-b = Cbl-b (Homo sapiens (Human), UniProt Q13191); assay: Cbl-b LCK Ub TR-FRET assay (Cbl-b Lck HTRF); format: biochemical
How it was run: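 Biotin-Cbl-b preincubated with compound (10-point 3-fold series) 60 min, then His-LCK with 1 mM ATP (2× mixture) added for 90 min at room temperature. Ubiquitination detected by TR-FRET using HA-ubiquitin/UBE2D2 adduct, anti-HA-D2 and streptavidin-Eu; IC50 normalised to no-LCK and DMSO controls.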

c-Cbl = c-Cbl (Homo sapiens (Human), UniProt P22681); assay: C-Cbl LCK Ub TR-FRET assay (c-cbl Lck HTRF); format: biochemical; conditions: for (fold-selectivity): C-cbl Lck HTRF IC50 relative to Cbl-b Lck HTRF IC50
Sequence of c-Cbl (P22681 47-435): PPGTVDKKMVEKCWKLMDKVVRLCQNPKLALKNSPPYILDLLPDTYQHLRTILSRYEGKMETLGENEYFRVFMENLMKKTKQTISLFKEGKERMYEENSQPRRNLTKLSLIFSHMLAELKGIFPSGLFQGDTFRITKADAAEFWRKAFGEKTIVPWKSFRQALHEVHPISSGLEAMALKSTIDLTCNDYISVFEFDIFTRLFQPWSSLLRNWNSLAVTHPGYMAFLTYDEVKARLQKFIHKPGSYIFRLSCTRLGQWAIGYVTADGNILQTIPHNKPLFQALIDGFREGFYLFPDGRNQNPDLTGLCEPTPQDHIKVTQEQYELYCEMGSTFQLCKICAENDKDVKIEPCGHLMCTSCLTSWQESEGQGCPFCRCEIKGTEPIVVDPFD
How it was run: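 After the ubiquitination reaction, detection mixture was added and plates incubated 20 min at room temperature before reading. IC50 values were calculated with wells lacking LCK as the low control and DMSO as the high control.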

Sequence of Cbl-b (Q13191 40-426): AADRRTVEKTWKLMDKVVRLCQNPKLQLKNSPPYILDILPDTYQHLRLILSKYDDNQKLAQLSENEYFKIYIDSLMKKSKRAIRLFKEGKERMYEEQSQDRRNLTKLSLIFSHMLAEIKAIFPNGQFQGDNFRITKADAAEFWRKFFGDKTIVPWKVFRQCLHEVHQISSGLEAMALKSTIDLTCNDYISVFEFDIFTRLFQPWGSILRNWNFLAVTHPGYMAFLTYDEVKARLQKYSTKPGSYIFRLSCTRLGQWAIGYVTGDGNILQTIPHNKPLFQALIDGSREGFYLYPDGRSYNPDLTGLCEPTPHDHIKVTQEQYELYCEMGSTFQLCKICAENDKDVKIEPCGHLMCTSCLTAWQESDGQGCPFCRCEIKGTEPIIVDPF

SMILES	IC50 (Cbl-b) [nM]	IC50 (c-Cbl) [nM]	(fold-selectivity) (c-Cbl) [x]
CCCC1(O)CN(Cc2cc3c(c(C(F)(F)F)c2)CN(c2cccc(C4([C@@H](F)c5nncn5C)COC4)c2)C3=O)C1 [Compound 171, (R)-2-(3-(3-(fluoro(4-methyl-4H-1,2,4-triazol-3-yl)methyl)oxetan-3-yl)phenyl)-6-((3-hydroxy-3-propylazetidin-1-yl)methyl)-4-(trifluoromethyl)isoindolin-1-one]	49	82	1.7
CCCC1(O)CN(Cc2cc3c(c(C(F)(F)F)c2)CN(c2cccc(C4([C@H](F)c5nncn5C)COC4)c2)C3=O)C1 [Compound 172, (S)-2-(3-(3-(fluoro(4-methyl-4H-1,2,4-triazol-3-yl)methyl)oxetan-3-yl)phenyl)-6-((3-hydroxy-3-propylazetidin-1-yl)methyl)-4-(trifluoromethyl)isoindolin-1-one]	180	520	2.9
Cn1cnnc1[C@H](F)C1(c2cccc(N3Cc4c(cc(CN5CC(O)(C6CC6)C5)cc4C(F)(F)F)C3=O)c2)COC1 [Compound 173, (R)-6-((3-cyclopropyl-3-hydroxyazetidin-1-yl)methyl)-2-(3-(3-(fluoro(4-methyl-4H-1,2,4-triazol-3-yl)methyl)oxetan-3-yl)phenyl)-4-(trifluoromethyl)isoindolin-1-one]	63	83	1.3
Cn1cnnc1[C@@H](F)C1(c2cccc(N3Cc4c(cc(CN5CC(O)(C6CC6)C5)cc4C(F)(F)F)C3=O)c2)COC1 [Compound 174, (S)-6-((3-cyclopropyl-3-hydroxyazetidin-1-yl)methyl)-2-(3-(3-(fluoro(4-methyl-4H-1,2,4-triazol-3-yl)methyl)oxetan-3-yl)phenyl)-4-(trifluoromethyl)isoindolin-1-one]	190	440	2.3
Cn1cnnc1[C@H](F)C1(c2cccc(N3Cc4c(cc(CN5CCC56COC6)cc4C(F)(F)F)C3=O)c2)COC1 [Compound 175, (R)-6-(6-oxa-1-azaspiro[3.3]heptan-1-ylmethyl)-2-(3-(3-(fluoro(4-methyl-4H-1,2,4-triazol-3-yl)methyl)oxetan-3-yl)phenyl)-4-(trifluoromethyl)isoindolin-1-one]	150	350	2.5
Cn1cnnc1[C@@H](F)C1(c2cccc(N3Cc4c(cc(CN5CCC56COC6)cc4C(F)(F)F)C3=O)c2)COC1 [Compound 176, (S)-6-(6-oxa-1-azaspiro[3.3]heptan-1-ylmethyl)-2-(3-(3-(fluoro(4-methyl-4H-1,2,4-triazol-3-yl)methyl)oxetan-3-yl)phenyl)-4-(trifluoromethyl)isoindolin-1-one]	350	1300	3.5
Cn1cnnc1[C@H](F)C1(c2cccc(N3Cc4c(cc(CN5CC(CCO)C5)cc4C(F)(F)F)C3=O)c2)COC1 [Compound 177, (R)-2-(3-(3-(fluoro(4-methyl-4H-1,2,4-triazol-3-yl)methyl)oxetan-3-yl)phenyl)-6-((3-(2-hydroxyethyl)azetidin-1-yl)methyl)-4-(trifluoromethyl)isoindolin-1-one]	41	91	2.2
Cn1cnnc1[C@@H](F)C1(c2cccc(N3Cc4c(cc(CN5CC(CCO)C5)cc4C(F)(F)F)C3=O)c2)COC1 [Compound 178, (S)-2-(3-(3-(fluoro(4-methyl-4H-1,2,4-triazol-3-yl)methyl)oxetan-3-yl)phenyl)-6-((3-(2-hydroxyethyl)azetidin-1-yl)methyl)-4-(trifluoromethyl)isoindolin-1-one]	170	350	2.0
COC1(C)CN(Cc2cc3c(c(C(F)(F)F)c2)CN(c2cccc(C4([C@@H](F)c5nncn5C)COC4)c2)C3=O)C1 [Compound 179, (R)-2-(3-(3-(fluoro(4-methyl-4H-1,2,4-triazol-3-yl)methyl)oxetan-3-yl)phenyl)-6-((3-methoxy-3-methylazetidin-1-yl)methyl)-4-(trifluoromethyl)isoindolin-1-one]	54	110	2.1
COC1(C)CN(Cc2cc3c(c(C(F)(F)F)c2)CN(c2cccc(C4([C@H](F)c5nncn5C)COC4)c2)C3=O)C1 [Compound 180, (S)-2-(3-(3-(fluoro(4-methyl-4H-1,2,4-triazol-3-yl)methyl)oxetan-3-yl)phenyl)-6-((3-methoxy-3-methylazetidin-1-yl)methyl)-4-(trifluoromethyl)isoindolin-1-one]	220	430	1.9
Cn1cnnc1[C@H](F)C1(c2cccc(N3Cc4c(cc(CN5CC6(C5)CS(=O)(=O)C6)cc4C(F)(F)F)C3=O)c2)COC1 [Compound 181, (R)-6-((2,2-dioxido-2-thia-6-azaspiro[3.3]heptan-6-yl)methyl)-2-(3-(3-(fluoro(4-methyl-4H-1,2,4-triazol-3-yl)methyl)oxetan-3-yl)phenyl)-4-(trifluoromethyl)isoindolin-1-one]	52	110	2.1
Cn1cnnc1[C@@H](F)C1(c2cccc(N3Cc4c(cc(CN5CC6(C5)CS(=O)(=O)C6)cc4C(F)(F)F)C3=O)c2)COC1 [Compound 182, (S)-6-((2,2-dioxido-2-thia-6-azaspiro[3.3]heptan-6-yl)methyl)-2-(3-(3-(fluoro(4-methyl-4H-1,2,4-triazol-3-yl)methyl)oxetan-3-yl)phenyl)-4-(trifluoromethyl)isoindolin-1-one]	170	430	2.6
CC(C)C1(O)CN(Cc2cc3c(c(C(F)(F)F)c2)CN(c2cccc(C4([C@@H](F)c5nncn5C)COC4)c2)C3=O)C1 [Compound 183, (R)-2-(3-(3-(fluoro(4-methyl-4H-1,2,4-triazol-3-yl)methyl)oxetan-3-yl)phenyl)-6-((3-hydroxy-3-isopropylazetidin-1-yl)methyl)-4-(trifluoromethyl)isoindolin-1-one]	57	120	2.2

Further lines, results first:

IC50 (Cbl-b) [nM]	IC50 (c-Cbl) [nM]	(fold-selectivity) (c-Cbl) [x]	SMILES
160	370	2.3	CC(C)C1(O)CN(Cc2cc3c(c(C(F)(F)F)c2)CN(c2cccc(C4([C@H](F)c5nncn5C)COC4)c2)C3=O)C1 [Compound 184, (S)-2-(3-(3-(fluoro(4-methyl-4H-1,2,4-triazol-3-yl)methyl)oxetan-3-yl)phenyl)-6-((3-hydroxy-3-isopropylazetidin-1-yl)methyl)-4-(trifluoromethyl)isoindolin-1-one]
72	110	1.5	COCC1(O)CN(Cc2cc3c(c(C(F)(F)F)c2)CN(c2cccc(C4([C@@H](F)c5nncn5C)COC4)c2)C3=O)C1 [Compound 185, (R)-2-(3-(3-(fluoro(4-methyl-4H-1,2,4-triazol-3-yl)methyl)oxetan-3-yl)phenyl)-6-((3-hydroxy-3-(methoxymethyl)azetidin-1-yl)methyl)-4-(trifluoromethyl)isoindolin-1-one]
110	200	1.7	COCC1(O)CN(Cc2cc3c(c(C(F)(F)F)c2)CN(c2cccc(C4([C@H](F)c5nncn5C)COC4)c2)C3=O)C1 [Compound 186, (S)-2-(3-(3-(fluoro(4-methyl-4H-1,2,4-triazol-3-yl)methyl)oxetan-3-yl)phenyl)-6-((3-hydroxy-3-(methoxymethyl)azetidin-1-yl)methyl)-4-(trifluoromethyl)isoindolin-1-one]
13	25	2.0	CC(C)[C@H]1CN(C)CCN1Cc1cc2c(c(C(F)(F)F)c1)CN(c1cccc(C3([C@H](F)c4nncn4C)COC3)c1)C2=O [Compound 188, 2-(3-(3-((S)-fluoro(4-methyl-4H-1,2,4-triazol-3-yl)methyl)oxetan-3-yl)phenyl)-6-(((S)-2-isopropyl-4-methylpiperazin-1-yl)methyl)-4-(trifluoromethyl)isoindolin-1-one]
47	38	0.82	CC(C)[C@H]1CN(C)CCN1Cc1cc2c(c(C(F)(F)F)c1)CN(c1cccc(C3([C@H](F)c4nncn4C)CC(F)(F)C3)c1)C2=O [Compound 190, 2-(3-(3,3-difluoro-1-((S)-fluoro(4-methyl-4H-1,2,4-triazol-3-yl)methyl)cyclobutyl)phenyl)-6-(((S)-2-isopropyl-4-methylpiperazin-1-yl)methyl)-4-(trifluoromethyl)isoindolin-1-one]
35	52	1.5	C[C@@H](N)c1cc2c(c(C(F)(F)F)c1)CN(c1cccc(C3([C@@H](F)c4nncn4C)COC3)c1)C2=O [Compound 191, 6-((R)-1-aminoethyl)-2-(3-(3-((R)-fluoro(4-methyl-4H-1,2,4-triazol-3-yl)methyl)oxetan-3-yl)phenyl)-4-(trifluoromethyl)isoindolin-1-one]
32	53	1.6	C[C@H](N)c1cc2c(c(C(F)(F)F)c1)CN(c1cccc(C3([C@@H](F)c4nncn4C)COC3)c1)C2=O [Compound 192, 6-((S)-1-aminoethyl)-2-(3-(3-((R)-fluoro(4-methyl-4H-1,2,4-triazol-3-yl)methyl)oxetan-3-yl)phenyl)-4-(trifluoromethyl)isoindolin-1-one]
